According to ChEMBL document CHEMBL1201862, “PubChem BioAssay data set” (2004):
Calls of active or inactive are those of the source.

How the values were obtained:
[1] = molecular target: Glyceraldehyde-3-phosphate dehydrogenase (Homo sapiens, UniProt P04406)
[2] = molecular target: T1, Alkaline phosphatase, tissue-nonspecific isozyme (Homo sapiens, UniProt P05186); test: potency against alkaline phosphatase TNAP – biochemical, luminescent, dose response, SAR follow-up (AID 1056)
T1 sequence (P05186 whole entry): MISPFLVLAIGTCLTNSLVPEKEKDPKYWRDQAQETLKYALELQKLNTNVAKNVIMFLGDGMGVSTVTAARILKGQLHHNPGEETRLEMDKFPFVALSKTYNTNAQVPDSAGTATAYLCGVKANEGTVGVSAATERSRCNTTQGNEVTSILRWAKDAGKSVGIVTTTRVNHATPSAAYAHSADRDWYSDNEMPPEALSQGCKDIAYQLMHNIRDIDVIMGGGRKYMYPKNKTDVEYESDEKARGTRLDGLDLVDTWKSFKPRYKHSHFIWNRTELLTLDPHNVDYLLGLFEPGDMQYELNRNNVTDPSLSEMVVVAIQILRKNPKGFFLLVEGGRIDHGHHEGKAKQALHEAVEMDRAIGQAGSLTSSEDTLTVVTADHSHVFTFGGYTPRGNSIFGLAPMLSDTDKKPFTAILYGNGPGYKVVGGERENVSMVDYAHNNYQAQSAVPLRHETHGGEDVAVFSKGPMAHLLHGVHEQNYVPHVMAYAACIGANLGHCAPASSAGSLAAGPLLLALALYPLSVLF

Prothrombin = Prothrombin (Homo sapiens, UniProt P00734); test: Thrombin 1536 HTS Dose Response Confirmation. [Related pubchem assays: 1046 (Thrombin 1536 HTS; hits were confirmed in this assay)]; type: functional
Cytochrome P450 2C19 = Cytochrome P450 2C19 (Homo sapiens, UniProt P33261); test: Cytochrome panel assay with activity outcomes. Panel member name: p450-cyp2c19 Compounds with AC50 equal or less than 10 uM are considered active; type: functional; conditions: read-out: AC50
Escherichia coli = test: microbe, parasite or virus in culture
[3] = molecular target: T2, Peroxisome proliferator-activated receptor gamma/Nuclear receptor coactivator 2 (Homo sapiens, UniProt P37231); type: functional
[4] = molecular target: T3, Peroxisome proliferator-activated receptor gamma/Nuclear receptor coactivator 1 (Homo sapiens, UniProt P37231); type: functional
[5] = molecular target: T4, Peroxisome proliferator-activated receptor gamma/Nuclear receptor coactivator 3 (Homo sapiens, UniProt P37231); type: functional
[6] = molecular target: T5, Mannose-6-phosphate isomerase (Homo sapiens, UniProt P34949); test: MPI inhibition at elevated mannose 6-phosphate – biochemical, fluorescence intensity, high mannose 6-phosphate, primary screen (AID 1220)
T5 sequence (P34949 whole entry): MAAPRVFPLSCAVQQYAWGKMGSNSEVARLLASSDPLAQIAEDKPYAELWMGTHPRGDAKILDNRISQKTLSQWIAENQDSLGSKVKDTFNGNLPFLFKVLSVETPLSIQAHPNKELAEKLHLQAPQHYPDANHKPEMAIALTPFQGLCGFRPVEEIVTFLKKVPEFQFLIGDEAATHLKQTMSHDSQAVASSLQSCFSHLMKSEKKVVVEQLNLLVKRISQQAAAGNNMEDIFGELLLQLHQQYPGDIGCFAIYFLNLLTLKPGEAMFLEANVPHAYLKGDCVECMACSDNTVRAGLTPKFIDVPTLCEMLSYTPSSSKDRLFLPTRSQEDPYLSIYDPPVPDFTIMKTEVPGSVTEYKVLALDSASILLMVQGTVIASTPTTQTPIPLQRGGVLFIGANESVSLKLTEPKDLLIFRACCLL

Large T antigen = Large T antigen (Simian virus 40, UniProt P03070); type: functional, Betapolyomavirus macacae;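 also: Confirmatory-stage PubChem screen for compounds that inhibit SV40 T antigen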
[7] = molecular target: T3, Peroxisome proliferator-activated receptor gamma/Nuclear receptor coactivator 1; test: (§1) TR-FRET dose response biochemical High Throughput Screening assay for agonists of the steroid receptor coactivator 1 (SRC-1) recruitment by the peroxisome proliferator-activated receptor gamma (PPAR gamma): non-selective agonists. [Related pubchem assays (depositor defined):AID1300, AID1808, AID504735, AID631]; type: protein assay
[8] = molecular target: T4, Peroxisome proliferator-activated receptor gamma/Nuclear receptor coactivator 3; test: as §1, with “3 (SRC-3)” for “1 (SRC-1)”, “assays: 1301 (Confirmation screen.), 1048 (Primary screen.)]” for “assays (depositor defined):AID1300, AID1808, AID504735, AID631]”; type: functional
[9] = molecular target: T2, Peroxisome proliferator-activated receptor gamma/Nuclear receptor coactivator 2; test: TR-FRET dose response biochemical High Throughput Screening assay for agonists of the steroid receptor coactivator 2 (SRC-2) recruitment by the peroxisome proliferator-activated receptor gamma (PPAR gamma): non-selective agonists. [Related pubchem assays: 1297, 1032 ]; type: functional
[10] = molecular target: Voltage-dependent T-type calcium channel subunit alpha-1H (Homo sapiens, UniProt O95180); type: functional;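 also: channel activity triggered by adding a high calcium stimulation buffer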
Cytochrome P450 2C9 [11] = molecular target: T6, Cytochrome P450 2C9 (Homo sapiens, UniProt P11712)
Estrogen receptor beta = Estrogen receptor beta (Homo sapiens, UniProt Q92731);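 also: recombinant ER-beta bound to coactivator SRC1 peptide in presence of estradiol agonist; inhibitors block coactivator peptide binding and lower the FRET signal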
[12] = molecular target: Dual specificity tyrosine-phosphorylation-regulated kinase 1A (Rattus norvegicus, UniProt Q63470); type: biochemical, Homo sapiens
[13] = molecular target: Induced myeloid leukemia cell differentiation protein Mcl-1 (Homo sapiens, UniProt Q07820); type: functional
Cytochrome P450 3A4 = Cytochrome P450 3A4 (Homo sapiens, UniProt P08684);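 also: CYP3A4 tested as one member of a cytochrome P450 panel screen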
Cytochrome P450 2C9 [14] = molecular target: T6, Cytochrome P450 2C9; remark: listed apart in the source
CAAX prenyl protease 2 = molecular target: T7, CAAX prenyl protease 2 (Saccharomyces cerevisiae S288c, UniProt Q03530); type: biochemical
T7 sequence (Q03530 whole entry): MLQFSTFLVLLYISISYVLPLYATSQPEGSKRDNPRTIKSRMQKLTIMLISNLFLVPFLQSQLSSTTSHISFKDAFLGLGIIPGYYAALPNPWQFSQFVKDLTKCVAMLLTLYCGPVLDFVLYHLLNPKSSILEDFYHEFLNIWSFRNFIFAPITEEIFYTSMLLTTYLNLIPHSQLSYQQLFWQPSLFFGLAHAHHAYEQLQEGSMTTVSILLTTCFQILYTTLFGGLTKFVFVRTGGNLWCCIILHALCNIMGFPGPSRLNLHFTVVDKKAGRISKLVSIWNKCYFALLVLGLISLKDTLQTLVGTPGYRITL

Estrogen receptor = molecular target: T8, Estrogen receptor (Homo sapiens, UniProt P03372);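 also: potency for inhibiting coactivator peptide recruitment to the receptor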
T8 sequence (P03372 whole entry): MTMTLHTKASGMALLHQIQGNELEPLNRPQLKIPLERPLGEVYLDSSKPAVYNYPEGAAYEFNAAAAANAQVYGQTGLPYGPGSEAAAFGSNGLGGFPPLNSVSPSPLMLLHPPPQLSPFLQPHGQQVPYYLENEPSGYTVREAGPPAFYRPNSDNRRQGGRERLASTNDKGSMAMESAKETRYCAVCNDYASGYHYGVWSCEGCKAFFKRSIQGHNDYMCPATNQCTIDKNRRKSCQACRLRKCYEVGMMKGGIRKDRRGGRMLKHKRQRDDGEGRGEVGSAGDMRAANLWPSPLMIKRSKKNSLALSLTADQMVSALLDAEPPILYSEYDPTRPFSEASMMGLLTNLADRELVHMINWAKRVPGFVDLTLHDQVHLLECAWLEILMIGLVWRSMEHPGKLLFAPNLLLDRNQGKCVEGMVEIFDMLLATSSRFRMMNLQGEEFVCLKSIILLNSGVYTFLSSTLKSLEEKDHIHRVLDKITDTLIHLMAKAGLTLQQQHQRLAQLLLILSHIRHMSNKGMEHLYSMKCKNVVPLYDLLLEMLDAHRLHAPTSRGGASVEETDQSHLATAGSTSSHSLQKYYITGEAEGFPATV

[15] = molecular target: Eukaryotic translation initiation factor 4E (Mus musculus, UniProt P63073); test: blockers of eIF4G binding by eIF4E – biochemical, TR-FRET, dose response (AID 855); type: functional;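 also: potency for disrupting eIF4E binding to eIF4GI seen as loss of FRET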
[16] = molecular target: DNA dC->dU-editing enzyme APOBEC-3G (Homo sapiens, UniProt Q9HC16); test: Dose Response confirmation of small molecule APOBEC3G DNA Deaminase Inhibitors via a fluorescence-based single-stranded DNA deaminase assay. [Related pubchem assays (depositor defined):AID493012, AID493028]; type: functional
[17] = molecular target: FAD-linked sulfhydryl oxidase ALR (Homo sapiens, UniProt P55789); test: ALR-catalysed DTT oxidation blockers – biochemical, H2O2 detection, luminescence, cherry-pick, dose response (AID 493248)
FAD-linked sulfhydryl oxidase ALR, sequence (P55789 whole entry): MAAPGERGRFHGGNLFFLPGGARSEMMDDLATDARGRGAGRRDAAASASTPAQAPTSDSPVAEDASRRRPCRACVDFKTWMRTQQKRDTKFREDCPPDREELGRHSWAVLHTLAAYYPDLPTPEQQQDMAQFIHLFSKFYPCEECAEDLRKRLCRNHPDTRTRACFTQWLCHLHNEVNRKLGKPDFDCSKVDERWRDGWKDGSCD

T4 sequence (P37231 whole entry): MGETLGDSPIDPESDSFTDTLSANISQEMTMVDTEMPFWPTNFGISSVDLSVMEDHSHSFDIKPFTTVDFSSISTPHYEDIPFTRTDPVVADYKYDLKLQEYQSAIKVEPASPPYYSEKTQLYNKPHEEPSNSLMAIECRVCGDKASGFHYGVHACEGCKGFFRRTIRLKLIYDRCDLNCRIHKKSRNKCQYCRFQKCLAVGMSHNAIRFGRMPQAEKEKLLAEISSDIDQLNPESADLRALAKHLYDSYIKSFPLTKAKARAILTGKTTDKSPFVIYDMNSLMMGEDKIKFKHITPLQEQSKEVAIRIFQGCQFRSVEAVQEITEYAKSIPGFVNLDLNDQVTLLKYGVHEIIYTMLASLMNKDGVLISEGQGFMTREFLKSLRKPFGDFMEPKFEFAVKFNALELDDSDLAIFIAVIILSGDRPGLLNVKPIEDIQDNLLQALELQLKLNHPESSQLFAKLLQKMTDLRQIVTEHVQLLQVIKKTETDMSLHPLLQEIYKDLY
T4 sequence (Q9Y6Q9 whole entry, further chain): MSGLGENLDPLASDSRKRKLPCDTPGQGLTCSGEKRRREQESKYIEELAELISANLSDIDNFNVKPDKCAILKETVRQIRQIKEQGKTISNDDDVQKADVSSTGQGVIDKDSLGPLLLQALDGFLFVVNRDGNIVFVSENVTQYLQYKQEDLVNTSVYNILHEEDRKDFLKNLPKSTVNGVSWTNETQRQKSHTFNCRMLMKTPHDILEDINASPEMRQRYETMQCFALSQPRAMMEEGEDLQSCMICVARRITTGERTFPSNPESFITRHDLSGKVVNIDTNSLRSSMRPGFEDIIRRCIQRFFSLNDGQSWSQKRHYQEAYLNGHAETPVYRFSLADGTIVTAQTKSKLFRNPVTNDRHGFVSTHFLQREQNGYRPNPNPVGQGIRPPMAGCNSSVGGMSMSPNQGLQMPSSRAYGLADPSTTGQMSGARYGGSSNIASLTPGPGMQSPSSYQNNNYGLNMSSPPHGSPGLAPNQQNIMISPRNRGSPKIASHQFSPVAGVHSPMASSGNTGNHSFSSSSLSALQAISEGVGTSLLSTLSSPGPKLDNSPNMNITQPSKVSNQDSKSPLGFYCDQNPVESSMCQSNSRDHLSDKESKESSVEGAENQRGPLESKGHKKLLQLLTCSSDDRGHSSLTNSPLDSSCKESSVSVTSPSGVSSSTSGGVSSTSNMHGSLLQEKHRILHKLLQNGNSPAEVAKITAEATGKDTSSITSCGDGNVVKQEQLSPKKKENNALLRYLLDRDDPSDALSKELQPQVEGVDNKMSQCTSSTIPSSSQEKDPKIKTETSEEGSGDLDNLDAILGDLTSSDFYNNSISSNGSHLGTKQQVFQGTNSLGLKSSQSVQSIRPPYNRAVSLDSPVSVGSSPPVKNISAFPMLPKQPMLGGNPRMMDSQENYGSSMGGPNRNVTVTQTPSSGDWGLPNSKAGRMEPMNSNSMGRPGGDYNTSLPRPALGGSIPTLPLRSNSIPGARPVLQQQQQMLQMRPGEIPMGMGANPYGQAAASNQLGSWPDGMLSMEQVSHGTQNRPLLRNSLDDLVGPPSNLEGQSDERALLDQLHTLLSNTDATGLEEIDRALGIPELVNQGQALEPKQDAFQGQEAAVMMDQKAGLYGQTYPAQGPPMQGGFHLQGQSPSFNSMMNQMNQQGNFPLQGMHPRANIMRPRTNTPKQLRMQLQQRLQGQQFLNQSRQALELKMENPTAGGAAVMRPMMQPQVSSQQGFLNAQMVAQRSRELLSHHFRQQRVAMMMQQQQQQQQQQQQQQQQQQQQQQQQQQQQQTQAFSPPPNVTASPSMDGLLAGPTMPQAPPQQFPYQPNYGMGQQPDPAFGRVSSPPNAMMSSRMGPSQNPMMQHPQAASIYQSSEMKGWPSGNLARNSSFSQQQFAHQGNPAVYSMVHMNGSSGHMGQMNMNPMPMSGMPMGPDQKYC
T2 sequence (P37231 whole entry): as the sequence (P37231 whole entry) above
T2 sequence (Q15596 whole entry, further chain): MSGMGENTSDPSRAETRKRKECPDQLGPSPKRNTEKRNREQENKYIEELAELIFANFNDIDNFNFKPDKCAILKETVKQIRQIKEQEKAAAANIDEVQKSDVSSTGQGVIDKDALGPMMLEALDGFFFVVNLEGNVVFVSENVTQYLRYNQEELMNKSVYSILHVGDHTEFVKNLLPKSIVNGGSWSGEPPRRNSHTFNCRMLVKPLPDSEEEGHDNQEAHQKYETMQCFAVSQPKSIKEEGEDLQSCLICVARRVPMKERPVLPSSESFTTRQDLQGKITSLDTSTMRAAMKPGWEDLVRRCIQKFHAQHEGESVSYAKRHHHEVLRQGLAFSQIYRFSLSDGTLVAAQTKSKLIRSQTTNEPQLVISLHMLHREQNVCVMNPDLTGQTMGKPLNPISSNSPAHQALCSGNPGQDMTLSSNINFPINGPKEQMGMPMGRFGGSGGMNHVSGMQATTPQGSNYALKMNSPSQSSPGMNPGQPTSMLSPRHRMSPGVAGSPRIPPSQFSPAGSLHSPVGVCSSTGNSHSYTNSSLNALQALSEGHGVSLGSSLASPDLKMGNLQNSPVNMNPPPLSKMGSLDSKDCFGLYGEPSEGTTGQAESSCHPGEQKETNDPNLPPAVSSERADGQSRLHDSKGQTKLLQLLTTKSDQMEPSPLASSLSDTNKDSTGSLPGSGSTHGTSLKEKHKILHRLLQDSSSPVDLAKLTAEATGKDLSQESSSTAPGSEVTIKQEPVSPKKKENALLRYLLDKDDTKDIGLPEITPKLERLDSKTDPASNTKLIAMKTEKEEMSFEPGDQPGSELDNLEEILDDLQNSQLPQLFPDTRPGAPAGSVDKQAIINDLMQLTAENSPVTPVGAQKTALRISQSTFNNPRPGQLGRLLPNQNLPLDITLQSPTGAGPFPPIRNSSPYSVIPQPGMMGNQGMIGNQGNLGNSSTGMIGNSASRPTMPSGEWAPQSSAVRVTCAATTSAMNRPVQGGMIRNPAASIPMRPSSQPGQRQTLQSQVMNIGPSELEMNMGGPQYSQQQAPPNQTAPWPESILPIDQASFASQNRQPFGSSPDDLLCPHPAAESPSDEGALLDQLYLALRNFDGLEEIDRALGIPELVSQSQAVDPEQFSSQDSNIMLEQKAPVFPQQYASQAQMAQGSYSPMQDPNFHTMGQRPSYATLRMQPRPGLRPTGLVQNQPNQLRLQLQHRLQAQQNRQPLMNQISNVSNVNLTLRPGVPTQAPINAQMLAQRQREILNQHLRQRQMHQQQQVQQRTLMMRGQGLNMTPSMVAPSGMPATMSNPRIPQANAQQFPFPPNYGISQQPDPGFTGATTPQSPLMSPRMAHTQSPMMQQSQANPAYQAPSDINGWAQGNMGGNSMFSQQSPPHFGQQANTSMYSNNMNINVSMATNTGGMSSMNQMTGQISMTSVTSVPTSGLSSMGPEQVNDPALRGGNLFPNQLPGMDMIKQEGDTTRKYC
Glyceraldehyde-3-phosphate dehydrogenase, sequence (P04406 whole entry): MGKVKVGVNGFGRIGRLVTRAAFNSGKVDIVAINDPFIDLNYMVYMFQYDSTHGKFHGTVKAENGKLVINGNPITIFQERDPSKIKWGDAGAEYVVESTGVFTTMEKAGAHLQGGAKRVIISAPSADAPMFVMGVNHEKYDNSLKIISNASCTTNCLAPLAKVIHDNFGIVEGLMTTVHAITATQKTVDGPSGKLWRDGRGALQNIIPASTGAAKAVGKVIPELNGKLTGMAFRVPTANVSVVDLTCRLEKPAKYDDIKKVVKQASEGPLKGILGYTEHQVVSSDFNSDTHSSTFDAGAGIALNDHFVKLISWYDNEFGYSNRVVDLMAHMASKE
T6 sequence (P11712 whole entry): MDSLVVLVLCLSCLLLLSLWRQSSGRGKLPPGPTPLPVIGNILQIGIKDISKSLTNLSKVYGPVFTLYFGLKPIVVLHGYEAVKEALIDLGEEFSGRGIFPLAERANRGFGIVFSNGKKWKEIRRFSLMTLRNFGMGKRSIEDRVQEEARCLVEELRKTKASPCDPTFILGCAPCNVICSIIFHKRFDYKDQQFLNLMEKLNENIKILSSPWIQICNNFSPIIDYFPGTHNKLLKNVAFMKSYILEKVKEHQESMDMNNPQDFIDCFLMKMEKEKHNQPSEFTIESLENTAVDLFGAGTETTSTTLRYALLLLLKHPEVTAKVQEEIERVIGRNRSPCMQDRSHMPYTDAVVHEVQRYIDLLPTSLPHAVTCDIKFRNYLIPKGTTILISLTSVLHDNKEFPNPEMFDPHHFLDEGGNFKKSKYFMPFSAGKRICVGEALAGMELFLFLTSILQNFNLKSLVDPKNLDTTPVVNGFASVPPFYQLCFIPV

O=C(O)c1cc(-c2ccc(O)cc2)n[nH]1
IC50 [1]: > 100 µM (not active) | IC50 [2]: 14 µM (active)

COc1cccc(C(=O)n2c(SC)nc3cc4c(cc32)OCCO4)c1
IC50 (Prothrombin): 0.0235 µM (active) | AC50 (Cytochrome P450 2C19): 35.5 µM (inconclusive)

Cc1ccc(C)c(NC(=O)CCN2CCc3ccccc3C2)c1
AC50 (Escherichia coli): 58.7 µM (active)

COc1ccc(C(=O)C(C)(C)NO)cc1
EC50 [3]: > 79.4 µM (not active) | EC50 [4]: > 79.4 µM (not active) | EC50 [5]: > 79.4 µM (not active)

C(=N\c1cccc2c(/N=C/c3ccco3)cccc12)/c1ccco1
IC50 [6]: > 50 µM (not active)

O=C(NCc1ccccn1)c1cn(-c2ccccc2)nc1-c1ccc(Cl)cc1
IC50 (Prothrombin): > 50 µM (not active)

COc1cc(OC)c(C2CC(=O)N3CN(C)CSC3=C2C#N)cc1OC (stereo unspecified)
IC50 (Large T antigen): 61.1 µM (active) | IC50 [6]: 23.1 µM (active)

Cn1c(=O)cc(SCC(=O)NCCCN2CCN(c3ccccc3F)CC2)c2ccccc21
EC50 [7]: > 79.4 µM (inactive) | EC50 [8]: > 79.4 µM (not active) | EC50 [9]: > 79.4 µM (not active)

CC(C(=O)NCc1ccc2c(c1)OCO2)N1c2cccc3cccc(c23)S1(=O)=O (stereo unspecified)
EC50 [10]: 9.35 µM (active) | AC50 (Cytochrome P450 2C9 [11]): inconclusive

Cc1cc2cc(CCNC(=O)c3c(-c4ccccc4Cl)noc3C)c(=O)[nH]c2cc1C
EC50 [10]: 4.77 µM (active)

Cn1c(S)nnc1-c1sc2cc(C(F)(F)F)cnc2c1-c1cccs1
EC50 [7]: 6.65 µM (active) | EC50 [8]: 34 µM (not active) | EC50 [9]: 12.6 µM (not active)

CC(CO)(CO)NCc1ccc(-c2ccccc2)cc1
IC50 (Prothrombin): > 50 µM (not active)

COc1ccc(-c2cc(C(=O)O)n[nH]2)cc1
IC50 [1]: > 100 µM (not active) | IC50 [2]: 6.72 µM (active)

O=C(Oc1ccc2c(c1)OCC2=O)c1ccccc1
IC50 (Estrogen receptor beta): > 50 µM (not active)

CCCn1cc(SCC(=O)Nc2ccc3c(c2)OCO3)c2ccccc21
EC50 [10]: 5.11 µM (active)

CCOC(=O)c1c(NC(=O)CSc2nnc(CNc3ccc(F)cc3)o2)sc(C(C)=O)c1C
EC50 [3]: 42.5 µM (not active) | EC50 [4]: 54.3 µM (not active) | EC50 [5]: > 79.4 µM (not active)

COc1ccc(/C=C/C(=O)OCc2cc(=O)n3c(n2)sc2ccccc23)cc1
AC50 (Escherichia coli): > 150 µM (inactive)

CN(CCCNC(=O)CSc1cc(=O)n(C)c2ccc(Cl)cc12)Cc1ccccc1
EC50 [7]: > 79.4 µM (inactive) | EC50 [8]: > 79.4 µM (not active) | EC50 [9]: > 79.4 µM (not active)

COc1cccc(/C=c2/s/c(=C(\C#N)C(=O)N3CCOCC3)n(-c3ccccc3)c2=O)c1
EC50 [3]: > 79.4 µM (not active) | EC50 [4]: > 79.4 µM (not active) | EC50 [5]: > 79.4 µM (not active)

CC(=O)Nc1cccc(NC(=O)c2cc3ccccc3o2)c1
AC50 [12]: 11.5 µM (active)

CCOc1ccc(C(=O)CCN2CCCCC2)cc1
IC50 (Estrogen receptor beta): > 50 µM (not active)

C[N+](C)(CCOc1ccccc1)Cc1ccccc1.O=C([O-])c1cc2ccccc2c(Br)c1O
AC50 [12]: 0.517 µM (active)

O=C(NCc1ccco1)c1cnc2ccc(S(=O)(=O)N3CCOCC3)cc2c1O
IC50 (Prothrombin): 0.943 µM (active)

COc1ccc(N2CCC(CNC(=O)Nc3cccc(OC)c3)C2)cc1 (stereo unspecified)
IC50 (Large T antigen): 43.3 µM (active) | IC50 [13]: 3.18 µM (not active) | IC50 [6]: > 50 µM (not active)

N#Cc1c(-c2ccccc2)cc(C2CC2)nc1SCC(=O)c1cccs1
EC50 [7]: 7.51 µM (active) | EC50 [8]: 20.6 µM (not active) | EC50 [9]: 7.18 µM (active) | AC50 (Cytochrome P450 3A4): 14.1 µM (inconclusive) | AC50 (Cytochrome P450 2C9 [14]): 0.0447 µM (inconclusive)

COc1cccc(Cc2nnc(N3C(=O)[C@H]4CC=CC[C@H]4C3=O)[nH]2)c1
IC50 [1]: > 100 µM (not active) | IC50 [2]: 2.48 µM (active)

CCc1nc(/C=C2\C(=O)Nc3ccccc32)c[nH]1
AC50 [12]: 10.5 µM (active)

CN(C)CCN(C(=O)c1ccc2ccccc2c1)c1nc2ccc(F)cc2s1
AC50 (CAAX prenyl protease 2): 6.44 µM (active)

COc1ccc(-c2cc(-c3cccs3)c(C#N)c(SCC(=O)NCc3ccco3)n2)cc1
IC50 (Estrogen receptor): > 50 µM (not active)

O=C(CSc1cccc(C(F)(F)F)c1)NC(=O)NCc1ccco1
IC50 (Estrogen receptor): > 50 µM (not active) | EC50 [10]: 1.67 µM (active)

Clc1ccc(Cl)c(-c2nn3c(COc4ccccc4)nnc3s2)c1
IC50 [15]: > 64 µM (inactive) | IC50 [16]: 37 µM (active)

O=C(Nc1ccccc1Cl)C1CCN(Cc2cnn(-c3ccccc3)c2-n2cccc2)CC1
EC50 [10]: 2.74 µM (active)

O=C(NCc1ccccc1)c1[nH]cnc1C(=O)N1CCN(c2ccccc2)CC1
AC50 [17]: 6.21 µM (active) | AC50 (Escherichia coli): 38.8 µM (active)

Cc1ccc(C(=O)N2CC2C)cc1 (stereo unspecified)
AC50 (Escherichia coli): 25.4 µM (active)
